Data taken from patent US20250333371A1, “COMPOUNDS” (PSYLO PTY LTD, priority 2022, published 2025).
Read-outs that look alike come from different tables or passages of the source.

How the values were obtained:
Type in all cases: cell-based
5-HT2A = molecular target: T1, 5-HT2A (Homo sapiens, UniProt P28223); assay: FLIPR Ca2+ flux functional assay, 5-HT2A receptor (stably transfected HEK293); conditions: for Emax at 10 µM: no EC50 value given, read-out: 5-HT2A Emax (%) printed as % @ 10 uM
T1 construct: host or cells: HEK293
T1 sequence (P28223 whole entry): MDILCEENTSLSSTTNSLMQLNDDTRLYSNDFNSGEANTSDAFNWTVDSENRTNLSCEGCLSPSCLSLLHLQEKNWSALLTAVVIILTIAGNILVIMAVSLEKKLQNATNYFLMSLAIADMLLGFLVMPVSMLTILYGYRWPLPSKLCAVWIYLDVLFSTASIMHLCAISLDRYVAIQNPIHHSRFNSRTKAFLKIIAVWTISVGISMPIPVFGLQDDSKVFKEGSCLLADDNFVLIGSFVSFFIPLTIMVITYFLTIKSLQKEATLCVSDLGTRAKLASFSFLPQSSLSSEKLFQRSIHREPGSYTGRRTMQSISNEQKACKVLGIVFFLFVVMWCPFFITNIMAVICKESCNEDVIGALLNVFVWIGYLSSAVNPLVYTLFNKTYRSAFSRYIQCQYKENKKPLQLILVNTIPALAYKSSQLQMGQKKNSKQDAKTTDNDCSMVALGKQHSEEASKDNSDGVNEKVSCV
Procedure: (§1) Activity at 5-HT2A, 5-HT2B and 5-HT2C receptors was determined using a FLIPR Ca^2+ flux assay at WuXi AppTec Co. Ltd. (Hong Kong) Discovery Biology Unit according to their standard protocols. Briefly, stably transfected cells expressing the receptor of interest (HEK293 for 5-HT2A and 5-HT2C; CHO-K1 for 5-HT2B) were grown and plated in a 384 well plate and incubated at 37° C. and 5% CO2 overnight. A 250 mM stock solution of probenecid in FLIPR calcium assay buffer (10 mL) was freshly prepared and combined with a fluorescent dye (Fluo-4 Direct) to give a final assay concentration of 2.5 mM. Reference compounds were 4-fold serially diluted and the screening compounds were 3-fold serially diluted in 100% DMSO for 10 points using Agilent Bravo, and 750 nL was added to a 384 well compound plate using Echo along with 30 μL assay buffer. The fluorescent dye was then added to the assay plate along with assay buffer to a final volume of 40 μL. The cell plate was incubated for 50 min at 37° C. and 5% CO2 and placed into the FLIPR Tetra along with the compound plate. 10 μL of references and compounds were then transferred from the compound plate into the cell plate and the fluorescent signal was read.

5-HT2C = molecular target: T2, 5-HT2C (Homo sapiens, UniProt P28335); assay: FLIPR Ca2+ flux functional assay, 5-HT2C receptor (stably transfected HEK293)
T2 construct: host or cells: HEK293
T2 sequence (P28335 33-458): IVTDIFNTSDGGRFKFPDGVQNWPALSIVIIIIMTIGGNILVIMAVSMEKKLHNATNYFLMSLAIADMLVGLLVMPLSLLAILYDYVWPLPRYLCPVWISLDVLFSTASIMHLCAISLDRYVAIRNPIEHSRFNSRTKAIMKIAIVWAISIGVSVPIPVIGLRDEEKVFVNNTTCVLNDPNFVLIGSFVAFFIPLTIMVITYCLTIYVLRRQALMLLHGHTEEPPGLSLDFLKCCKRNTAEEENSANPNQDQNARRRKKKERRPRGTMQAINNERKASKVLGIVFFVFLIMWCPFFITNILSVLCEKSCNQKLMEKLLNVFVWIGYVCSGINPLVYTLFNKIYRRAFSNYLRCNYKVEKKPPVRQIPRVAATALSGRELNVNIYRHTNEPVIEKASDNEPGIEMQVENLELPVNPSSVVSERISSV
Procedure: as §1

5-HT2B = molecular target: T3, 5-HT2B (Homo sapiens, UniProt P41595); assay: FLIPR Ca2+ flux functional assay, 5-HT2B receptor (stably transfected CHO-K1)
T3 construct: host or cells: CHO-K1
T3 sequence (P41595 whole entry): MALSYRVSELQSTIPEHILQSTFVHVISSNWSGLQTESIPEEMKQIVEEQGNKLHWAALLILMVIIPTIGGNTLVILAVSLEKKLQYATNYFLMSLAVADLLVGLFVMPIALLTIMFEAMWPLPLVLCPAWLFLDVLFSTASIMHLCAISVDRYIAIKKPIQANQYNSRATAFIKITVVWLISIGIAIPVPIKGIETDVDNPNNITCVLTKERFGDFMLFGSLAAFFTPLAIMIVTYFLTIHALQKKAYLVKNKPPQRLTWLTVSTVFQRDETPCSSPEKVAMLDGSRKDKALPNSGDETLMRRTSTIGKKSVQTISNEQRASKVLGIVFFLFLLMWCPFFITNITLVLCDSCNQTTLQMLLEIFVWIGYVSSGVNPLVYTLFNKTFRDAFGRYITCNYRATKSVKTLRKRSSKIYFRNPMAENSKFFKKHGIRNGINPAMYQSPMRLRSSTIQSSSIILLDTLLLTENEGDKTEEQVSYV
Procedure: as §1

[1] = agonist activity, Ca2+ flux, HEK293
[2] = agonist activity, Ca2+ flux, CHO-K1
[3] = agonist activity, Ca2+ flux, HEK293, read-out: 5-HT2A EC50
[4] = agonist activity, Ca2+ flux, CHO-K1, read-out: 5-HT2B EC50
[5] = agonist activity, Ca2+ flux, HEK293, read-out: 5-HT2C EC50

SMILES	EC50 (5-HT2A) [nM]	Emax (5-HT2A; [1]) [%]	EC50 (5-HT2C) [nM]	Emax (5-HT2C; [1]) [%]	EC50 (5-HT2B) [nM]	Emax (5-HT2B; [2]) [%]	EC50 (5-HT2A; [3]) [nM]	EC50 (5-HT2B; [4]) [nM]	EC50 (5-HT2C; [5]) [nM]	Emax at 10 µM (5-HT2A; HEK293) [%]
CCN(C)CCc1cccc2ccccc12 [Example I-33, N-ethyl-N-methyl-2-(naphthalen-1-yl)ethan-1-amine]	204	58	115	67						
COc1cccc2cccc(CCN(C)C(C)C)c12 [Example I-28, N-(2-(8-methoxynaphthalen-1-yl)ethyl)-N-methylpropan-2-amine]	191	94	766	76	> 10000	46				
CN(C)CCc1cccc2ccc(F)cc12 [Example I-38, 2-(7-fluoronaphthalen-1-yl)-N,N-dimethylethan-1-amine]	245	66	46	83						
CCCN(CCC)CCc1cccc2cccc(OC)c12 [Example I-23, N-(2-(8-methoxynaphthalen-1-yl)ethyl)-N-propylpropan-1-amine]		93		88		89	165	103	291	
CN(C)CCc1cccc2cccc(O)c12 [Example I-21, 8-(2-(dimethylamino)ethyl)naphthalen-1-ol]		73	12	90			53			
CC(C)N(C)CCc1cccc2cccc(O)c12 [Example I-29, 8-(2-(methyl(isopropyl)amino)ethyl)naphthalen-1-ol]		79	54	84			36			
CN(CCc1cccc2cccc(O)c12)C1CC1 [Example I-31, 8-(2-(cyclopropyl(methyl)amino)ethyl)naphthalen-1-ol]		64		57			60		123	
COc1ccc2cccc(CCN(C(C)C)C(C)C)c2c1 [Example I-4, N-isopropyl-N-(2-(7-methoxynaphthalen-1-yl)ethyl)propan-2-amine]		111		99		123	446	1200	1260	
NCCc1cccc2ccc(F)cc12 [Example I-53, 2-(7-fluoronaphthalen-1-yl)ethan-1-amine]	34	83	1	97						
CCCN(C)CCc1cccc2ccc(OC)cc12 [Example I-6, N-(2-(7-methoxynaphthalen-1-yl)ethyl)-N-methylpropan-1-amine]	125	81	79	95	> 10000	24				
COc1cccc2c(CCN)cccc12 [Example I-52, 2-(5-methoxynaphthalen-1-yl)ethan-1-amine]	295	79	289	91						
COc1cccc(CNCCc2cccc3ccc(OC)cc23)c1 [Example I-17, N-(3-methoxybenzyl)-2-(7-methoxynaphthalen-1-yl)ethan-1-amine]		84		97			92		18	
CCN(C)CCc1cccc2cccc(OC)c12 [Example I-25, N-ethyl-2-(8-methoxynaphthalen-1-yl)-N-methylethan-1-amine]	158	67	201	84	> 10000	24				
CCN(CC)CCc1cccc2cccc(OC)c12 [Example I-22, N,N-diethyl-2-(8-methoxynaphthalen-1-yl)ethan-1-amine]	457	85	157	95	> 10000	34				
CC(C)N(C)CCc1cccc2ccc(F)cc12 [Example I-40, N-(2-(7-fluoronaphthalen-1-yl)ethyl)-N-methylpropan-2-amine]	378	68	120	84						
CCN(C)CCc1cccc2ccc(F)cc12 [Example I-39, N-ethyl-2-(7-fluoronaphthalen-1-yl)-N-methylethan-1-amine]	168	58	33	93						
CN(C)CCc1cccc2ccc(Cl)cc12 [Example I-32, 2-(7-chloronaphthalen-1-yl)-N,N-dimethylethan-1-amine]	240	63	61	87						
COc1ccc2cccc(CCN(C)C)c2c1 [Example I-1, 2-(7-methoxynaphthalen-1-yl)-N,N-dimethylethan-1-amine]		79	33	82	> 10000	-0.99	96			
CCN(CC)CCc1cccc2ccc(OC)cc12 [Example I-2, N,N-diethyl-2-(7-methoxynaphthalen-1-yl)ethan-1-amine]	360	70	733	88	> 10000	12				
COc1cccc2c(CCN(C)C)cccc12 [Example I-50, 2-(5-methoxynaphthalen-1-yl)-N,N-dimethylethan-1-amine]										28
COc1cccc2cccc(CCN(C(C)C)C(C)C)c12 [Example I-24, N-isopropyl-N-(2-(8-methoxynaphthalen-1-yl)ethyl)propan-2-amine]		98		90		116	1470	4700	2560	
COc1ccc2cccc(CCN(C)C)c2n1 [Example I-8, 2-(2-methoxyquinolin-8-yl)-N,N-dimethylethan-1-amine]				87		8		> 10000	314	24
CCCN(C)CCc1cccc2cccc(OC)c12 [Example I-27, N-(2-(8-methoxynaphthalen-1-yl)ethyl)-N-methylpropan-1-amine]	213	86	211	75	> 10000	2				
CCN(C)CCc1cccc2cccc(O)c12 [Example I-26, 8-(2-(methyl(ethyl)amino)ethyl)naphthalen-1-ol]		68	15	86			41			
COc1cnc2cccc(CCN(C)C)c2c1 [Example I-9, 2-(3-methoxyquinolin-5-yl)-N,N-dimethylethan-1-amine]		39		65		1	1840	> 10000	2390	
CCCN(CCC)CCc1cccc2ccc(OC)cc12 [Example I-3, N-(2-(7-methoxynaphthalen-1-yl)ethyl)-N-propylpropan-1-amine]		77		97		72	234	225	944	
COc1cccc2cccc(CCN(C)C3CC3)c12 [Example I-30, N-(2-(8-methoxynaphthalen-1-yl)ethyl)-N-methylcyclopropanamine]		48		60			496		409	
CCN(C)CCc1cccc2ccc(OC)cc12 [Example I-5, N-ethyl-2-(7-methoxynaphthalen-1-yl)-N-methylethan-1-amine]		63	43	94	> 10000	17	86			
COc1cccc2cccc(CCN(C)C)c12 [Example I-13, 2-(8-methoxynaphthalen-1-yl)-N,N-dimethylethan-1-amine]	138	49	582	58	> 10000	5				
CN(CCc1cccc2ccc(F)cc12)C1CC1 [Example I-41, N-(2-(7-fluoronaphthalen-1-yl)ethyl)-N-methylcyclopropanamine]		33		80			1020		150	
